Values of other authors as cited in PMC8781228 (Bioorganic & medicinal chemistry letters, 2017).

Tests used:
S1PR2 [1] = conditions: read-out: EC50 (allosteric S1PR2 selective agonist)
S1PR2 [2] = conditions: [33P]S1P competitive binding assay
S1PR2 [3] = conditions: [γ-35S]GTPγS binding assay
S1PR1 = conditions: [γ-35S]GTPγS binding assay
S1PR5 = conditions: [γ-35S]GTPγS binding assay
S1PR3 = conditions: [γ-35S]GTPγS binding assay
S1PR4 = conditions: [γ-35S]GTPγS binding assay

Question: Which EC50 (S1PR2 [1]) does the source give for `Cc1cc(C(=O)Cn2cc(C#N)ccc2=O)c(C)n1Cc1ccccc1` [CYM-5520] here?
Answer: 480 nM

Question: And the “competition with S1P” value (S1PR2 [2])?
Answer: not competitive with S1P

Question: With `CCCCCCCCc1ccc(CCC(N)(CO)CO)cc1` [FTY720, fingolimod] as the compound, how does the “activity at S1PR2” value (S1PR2 [3]) read?
Answer: inactive

Question: What about the “activity at S1PR1” value (S1PR1) of the same compound?
Answer: potent agonist

Question: What about the “activity at S1PR5” value (S1PR5) of the same compound?
Answer: potent agonist

Question: And the “activity at S1PR3” value (S1PR3)?
Answer: potent agonist

Question: And the “activity at S1PR4” value (S1PR4)?
Answer: potent agonist
